# Measurements: ChEMBL document CHEMBL5390268, “α-Pyrone Derivatives from Calcarisporium arbuscula Discovered by Genome Mining” (J Nat Prod, 2023)
# Calls of active or inactive are those of the source. The calls are words filed in the database; no cut-off is given here.
# Assays:
# HepG2 [1] = experiment: Cytotoxicity against human HepG2 cells assessed as inhibition of cell proliferation at 20 ug/ml incubated for 48 hrs by MTS assay; format: functional, cell-based; details: dose 20.0 µg/ml
# HCT-116 [2] = experiment: Cytotoxicity against human HCT-116 cells assessed as inhibition of cell proliferation at 20 ug/ml incubated for 48 hrs by MTS assay; format: functional, cell-based; details: dose 20.0 µg/ml
# Candida albicans = experiment: Antimicrobial activity against Candida albicans assessed as fungal growth inhibition by absorbance based assay; format: functional, organism-based
# Saccharomyces cerevisiae = experiment: Antimicrobial activity against Saccharomyces cerevisiae assessed as fungal growth inhibition by absorbance based assay; format: functional, organism-based
# Staphylococcus aureus = experiment: Antimicrobial activity against Staphylococcus aureus assessed as bacterial growth inhibition incubated for 24 hrs by absorbance based assay; format: functional, organism-based
# B16 [3] = experiment: Cytotoxicity against mouse B16 cells assessed as inhibition of cell proliferation at 20 ug/ml incubated for 48 hrs by MTS assay; format: functional, cell-based; details: dose 20.0 µg/ml
# Escherichia coli = experiment: Antimicrobial activity against Escherichia coli assessed as bacterial growth inhibition incubated for 24 hrs by absorbance based assay; format: functional, organism-based
# Bacillus subtilis = experiment: Antimicrobial activity against Bacillus subtilis assessed as bacterial growth inhibition incubated for 24 hrs by absorbance based assay; format: functional, organism-based
# HepG2 [4] = experiment: Cytotoxicity against human HepG2 cells assessed as inhibition of cell proliferation incubated for 48 hrs by MTS assay; format: functional, cell-based; details: HepG2, 48 h
# B16 [5] = experiment: Cytotoxicity against mouse B16 cells assessed as inhibition of cell proliferation incubated for 48 hrs by MTS assay; format: functional, cell-based; details: B16, 48 h
# HCT-116 [6] = experiment: Cytotoxicity against human HCT-116 cells assessed as inhibition of cell proliferation incubated for 48 hrs by MTS assay; format: functional, cell-based; details: HCT-116, 48 h
Compound,inhibition (HepG2 [1]),inhibition (HCT-116 [2]),inhibition (Candida albicans),inhibition (Saccharomyces cerevisiae),inhibition (Staphylococcus aureus),inhibition (B16 [3]),inhibition (Escherichia coli),inhibition (Bacillus subtilis),IC50 (HepG2 [4]),IC50 (B16 [5]),IC50 (HCT-116 [6])
CCCCC/C=C/c1cc(OC)cc(=O)o1,inactive,inactive,inactive,inactive,inactive,inactive,inactive,inactive,–,–,–
C/C=C/CC[C@@H](O)[C@H](O)c1cc(OC)cc(=O)o1,inactive,inactive,inactive,inactive,inactive,inactive,inactive,inactive,–,–,–
CCCCC[C@@H](O)[C@H](O)c1cc(OC)cc(=O)o1,inactive,inactive,inactive,inactive,inactive,inactive,inactive,inactive,–,–,–
C/C=C/CC/C=C/c1cc(OC)cc(=O)o1,–,–,inactive,inactive,inactive,–,inactive,inactive,41.8 µM,38.5 µM,21.7 µM
